One may read the Ki as a measure of affinity in units of concentration, obtained from inhibition or displacement.

Assay [1] has as its target human recombinant sGC enzyme (Homo sapiens (Human), UniProt Q02108+Q02153). The experiment in a line: SEC competition binding assay with [3H] Compound B radioligand. The conditions noted are these: displacement of 1.6 nM [3H] Compound B, 24 h at 37° C. On the procedure: The binding potencies of sGC compounds to the human recombinant sGC enzyme were determined in a Size Exclusion Chromatography (SEC) competition binding assay using [^3H] Compound B as the radioligand. [^3H] Compound B was prepared using a standardardized tritium exchange procedure. The parent (non-labeled) molecule was first iodinated then a Pd-catalyzed iodine to tritium exchange provided the labeled compound.
Method: The binding buffer was composed of 50 mM triethanolamine pH 7.4, 3 mM MgCl2, 0.025% BSA, 2 mM dithiothreitol (DTT), 300 μM DETA/NO and 400 μM GTP. Assays were conducted in 96-well plates in a total volume of 200 μL. Recombinant human sGC protein (40 ng) was incubated with 1.6 nM [^3H] Compound B for 24 h at 37° C. in the presence and absence of various concentrations of sGC testing compounds delivered as DMSO solutions to give a total of 1% organic solvent content. Non-specific binding was defined by competition with 1 μM of Compound B. After the incubation period, the binding mixtures were loaded onto the gel-filtration plate (ThermoFischer Cat. No. 89808) pre-equilibrated with binding buffer and spun at 1000×g for 3 min at 4° C. on a Bench top centrifuge. The collected eluates in White Frame Clear Well Isoplates (Perkin Elmer Cat #6005040) received 100 μl of UltimaGold scintillation cocktail. The sealed plates were shaken vigorously and span, and counted after 6 hs with a Wallac Microbeta TriLux 1450 LSC & Luminescence Counter (Perkin Elmer). Data from competition experiments were analyzed to determine Ki values using one site—fit Ki equation.

A further assay concerns the target sGC α1/β1 heterodimer (Homo sapiens (Human), UniProt Q02108+Q02153). The assay is described as follows: Cell-based sGC functional assay (CASA assay), cGMP by HTRF. Conditions: CHO-K1/sGC cells; for Emax: CHO-K1, cGMP production as percentage of maximum of compound A (set to 100%), read-out: % Activation; for EC50: inflection point of cGMP production, 4P fit, read-out: IP. The source says: Cell-Based sGC Functional Assay (Cyclic GMP Assay for sGC Activator: CASA Assay)
Soluble guanylate cyclase (sGC) is a heme-containing enzyme that converts GTP to secondary messenger cGMP. Increases in cGMP levels affect several physiological processes including vasorelaxation through multiple downstream pathways. […] Heme-dependent activators (HDAs) preferentially target sGC containing a ferrous heme group. To determine the effect of sGC activators on enzyme activity, the CASA assay was developed to monitor the generation of cGMP in a cell line that stably expresses the heterodimeric sGC protein.
A CHO-K1 cell line stably expressing the sGC α1/β1 heterodimer was generated using a standard transfection protocol. The cDNA's encoding human sGC α1 and β1 were cloned in pIRES hyg and pIRES neo respectively using standard molecular biology techniques. The plasmids pIRES hyg and pIRES neo plasmids were obtained from Clontech. CHO-K1 cells were transfected with plasmids pIREShyg-hsGCα1 and pIRESneo-hsGCβ1 simultaneously using FUGENE reagent. Clones that stably express both subunits were selected with hygromycin and neomycin for ˜2 weeks. The clone chosen for the assay was designated CHO-K1/sGC. CHO-K1/sGC cells were maintained in F-K12 medium containing 10% heat-inactivated Fetal Bovine Serum (FBS), 100 μg/mL penicillin/streptomycin, 0.5 mg/mL hygromycin and 0.25 mg/mL G418. The cells were then cryopreserved in liquid nitrogen. On the day of the assay, the cells were thawed and resuspended in EBSS Assay Buffer (Sigma, E3024) supplemented with 5 mM MgCl2, 10 mM HEPES (4-(2-hydroxyethyl)piperazine-1-ethanesulfonic acid) and 0.05% BSA (bovine serum albumin) and cell density was then adjusted to 2.25×10^5/mL with EAB. IBMX (3-isobutyl-1-methylxanthin, 0.5 mM) was added to inhibit degradation of cGMP. Compounds were diluted from DMSO stock solutions and added to the assay at a final DMSO concentration of 2.5%. Cells were pre-incubated in the presence and absence of 1 μM of Diethylenetriamine/nitric oxide adduct (DETA-NO; Sigma, 17018) for 30 min at 25° C. Compounds were subsequently added and incubated for 1 hr at 37° C. At the end of the incubation period, the reaction was terminated and the cells were lysed with the detection reagents from Cisbio Kits. The level of intracellular cGMP was determined using an HTRF-based assay kit (CisBio, 62GM2PEC), which detects the displacement of a fluorescence labeled cGMP from its specific antibody. The cGMP produced by test compounds was directly compared to the maximum cGMP production (this value was set to equal 100% activation) of the published sGC compound A (Example 1 in WO 2010/065275, published Jun. 10, 2010).
The test compounds' activities were then expressed as a percentage of compound A, the standard in every experiment. This percent activation was calculated either in the presence or absence of DETA-NO which was then plotted. Inflection points (IP) and maximum fold induction was derived using Abase analysis software for 4P fit.
In general terms: TR-FRET usually uses a lanthanide donor and a delayed reading to cut background.

`CC1(c2cc(O)c(C#N)c(Cl)c2)C(=O)Nc2nc(-c3cn4ccnc4c(CC4CCCCC4)n3)nc(N)c21` (stereo not drawn) [Example 142-A, 4-(4-amino-2-{8-(cyclohexylmethyl)-imidazo[1,2-a]pyrazin-6-yl}-5-methyl-6-oxo-6,7-dihydro-5H-pyrrolo-[2,3-d]pyrimidin-5-yl)-2-chloro-6-hydroxy-benzonitrile]: the Ki in assay [1] is 1.14 nM. Moreover, at sGC α1/β1 heterodimer, the Emax was 74% and the EC50 was determined as 3530 nM.
For `CC(C)CCc1nc(-c2nc(N)c3c(n2)NC(=O)C3(C)c2cc(O)c(Cl)c(F)c2)cn2ccnc12` (stereo not drawn) [Example 32-B, 4-Amino-5-(4-chloro-3-fluoro-5-hydroxyphenyl)-2-(8-isopentylimidazo[1,2-a]pyrazin-6-yl)-5-methyl-5,7-dihydro-6H-pyrrolo[2,3-d]pyrimidin-6-one], in that order: 0.306 nM, 107% and 648 nM.
For the compound `CC1(c2cc(O)c(Cl)c(F)c2)C(=O)Nc2nc(-c3cn4ccnc4c(Cc4cc(F)cc(F)c4F)n3)nc(N)c21` (stereo not drawn) [Example 7-B, 4-Amino-5-(4-chloro-3-fluoro-5-hydroxyphenyl)-5-methyl-2-{8-[(2,3,5-trifluorophenyl)methyl]imidazo[1,2-a]pyrazin-6-yl}-5,7-dihydro-6H-pyrrolo[2,3-d]pyrimidin-6-one], the Ki in assay [1] is 0.098 nM. Also, at sGC α1/β1 heterodimer, the Emax stood at 102% and the EC50 was 217 nM.
For `CN1CCN(c2nc(-c3cn4ccnc4c(Cc4ccc(F)cc4)n3)nc3c2C(C)(c2ccc(Cl)c(O)c2)C(=O)N3)CC1` (stereo not drawn) [Example 134-A, 5-(4-Chloro-3-hydroxy-phenyl)-2-{8-[(4-fluoro-phenyl)methyl]imidazo-[1,2-a]pyrazin-6-yl}-5-methyl-4-(4-methyl-piperazin-1-yl)-5,7-dihydro-6H-pyrrolo-[2,3-d]pyrimidin-6-one], in that order: 0.592 nM, 102% and 333 nM.
For `CC1(c2cc(O)c(C(F)(F)F)cn2)C(=O)Nc2nc(-c3cn4ccnc4c(CC4CCCCC4)n3)nc(N)c21` (stereo not drawn) [Example 147-B, 4-amino-2-{8-(cyclohexylmethyl)-imidazo[1,2-a]pyrazin-6-yl}-5-(4-hydroxy-5-(trifluoromethyl)pyridin-2-yl)-5-methyl-5,7-dihydro-6H-pyrrolo-[2,3-d]pyrimidin-6-one], in that order: 0.905 nM, 102% and 1200 nM.
For `CC1(c2ccc(F)c(O)c2)C(=O)Nc2nc(-c3cn4ccnc4c(CCC(F)(F)C(F)(F)F)n3)nc(N3CC(O)(C(F)(F)F)C3)c21` (stereo not drawn) [Example 129-B, 5-(4-Fluoro-3-hydroxyphenyl)-4-(3-hydroxy-3-(trifluoromethyl)azetidin-1-yl)-5-methyl-2-(8-(3,3,4,4,4-pentafluorobutyl)imidazo[1,2-a]pyrazin-6-yl)-5,7-dihydro-6H-pyrrolo[2,3-d]pyrimidin-6-one], in that order: 2 nM, 84% and 1890 nM.
As for `CC1(c2ccc(Cl)c(O)c2)C(=O)Nc2nc(-c3cn4ccnc4c(Cc4ccc(Cl)cc4)n3)nc(N)c21` (stereo not drawn) [Example 44-A, 4-Amino-5-(4-chloro-3-hydroxyphenyl)-2-{8-[(4-chlorophenyl)methyl]imidazo[1,2-a]pyrazin-6-yl}-5-methyl-5,7-dihydro-6H-pyrrolo[2,3-d]pyrimidin-6-one], in assay [1], the Ki was determined as 0.507 nM. Also, at sGC α1/β1 heterodimer, the Emax worked out at 100% and the EC50 amounted to 460 nM.
For `CC1(c2ccc(O)c(Cl)c2)C(=O)Nc2nc(-c3cn4ccnc4c(CC4CCCCC4)n3)nc(N)c21` (stereo not drawn) [Example 89-B, 4-Amino-5-(3-chloro-4-hydroxyphenyl)-2-(8-(cyclohexylmethyl)imidazo[1,2-a]pyrazin-6-yl)-5-methyl-5,7-dihydro-6H-pyrrolo[2,3-d]pyrimidin-6-one], in that order: 0.823 nM, 127% and 809 nM.

The record behind these values is US10780092B2, “Fused pyrazine derivatives useful as soluble guanylate cyclase stimulators” (Merck Sharp & Dohme Corp., priority 2016, dated 2020).
